Results published in paper PMC6070925, “Genome Mining of Non-Conventional Yeasts: Search and Analysis of MAL Clusters and Proteins” (Genes, 2018).

Tests used:
Assay in all cases: glucose release, recombinant E. coli extract
Type in all cases: biochemical
Conditions in all cases: 100 mM substrate, K-phosphate pH 6.5, 0.1 mM EDTA, 30 °C
MAL62 (Sc MAL62) [1] = biological target: T1, MAL62 (Sc MAL62) (Saccharomyces cerevisiae, UniProt P07265)
T1 construct: gene from plasmid pY6 cloned into pURI3-Cter, expressed in E. coli BL21 (DE3), crude cell extract
T1 sequence (P07265 whole entry): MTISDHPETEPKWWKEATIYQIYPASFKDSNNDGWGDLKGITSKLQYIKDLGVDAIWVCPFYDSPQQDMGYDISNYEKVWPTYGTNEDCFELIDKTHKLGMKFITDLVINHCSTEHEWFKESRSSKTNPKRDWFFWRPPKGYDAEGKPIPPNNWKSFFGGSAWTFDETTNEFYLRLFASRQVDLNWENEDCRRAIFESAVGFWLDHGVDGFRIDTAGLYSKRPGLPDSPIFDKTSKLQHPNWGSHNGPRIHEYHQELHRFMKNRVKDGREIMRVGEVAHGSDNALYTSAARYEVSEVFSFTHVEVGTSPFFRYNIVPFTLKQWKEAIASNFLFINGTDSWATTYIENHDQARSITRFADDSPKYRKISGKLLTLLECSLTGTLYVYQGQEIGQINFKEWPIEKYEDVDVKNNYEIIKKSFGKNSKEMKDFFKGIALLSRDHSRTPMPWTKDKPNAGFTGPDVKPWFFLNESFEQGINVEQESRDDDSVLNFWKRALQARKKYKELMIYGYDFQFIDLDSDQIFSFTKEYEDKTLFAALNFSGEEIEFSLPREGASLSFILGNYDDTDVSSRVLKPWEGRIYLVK

MAL8 (Ss MAL8) = biological target: T2, MAL8 (Ss MAL8) (Scheffersomyces stipitis, UniProt A3LXA2)
T2 construct: gene PCR-cloned from genomic DNA into pURI3-Cter, expressed in E. coli BL21 (DE3), crude cell extract
T2 sequence (A3LXA2 1-572): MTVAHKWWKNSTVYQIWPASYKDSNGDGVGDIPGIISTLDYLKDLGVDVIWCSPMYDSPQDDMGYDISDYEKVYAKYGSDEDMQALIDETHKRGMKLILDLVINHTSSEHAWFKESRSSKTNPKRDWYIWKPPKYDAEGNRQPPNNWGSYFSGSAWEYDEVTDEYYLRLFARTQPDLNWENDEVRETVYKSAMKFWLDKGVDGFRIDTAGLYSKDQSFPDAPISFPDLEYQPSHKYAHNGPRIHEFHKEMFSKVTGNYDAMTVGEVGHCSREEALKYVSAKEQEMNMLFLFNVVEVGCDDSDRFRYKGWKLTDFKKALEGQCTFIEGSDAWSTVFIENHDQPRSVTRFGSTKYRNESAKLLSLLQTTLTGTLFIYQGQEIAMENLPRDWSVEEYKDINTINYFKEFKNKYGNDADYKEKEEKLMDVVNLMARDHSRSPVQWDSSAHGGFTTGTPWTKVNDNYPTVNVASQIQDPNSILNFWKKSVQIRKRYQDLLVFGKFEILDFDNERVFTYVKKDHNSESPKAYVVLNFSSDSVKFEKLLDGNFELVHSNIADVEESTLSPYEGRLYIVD

MAL9 (Ss MAL9) = biological target: T3, MAL9 (Ss MAL9) (Scheffersomyces stipitis, UniProt A3GIC0)
T3 construct: gene PCR-cloned from genomic DNA into pURI3-Cter, expressed in E. coli BL21 (DE3), crude cell extract
T3 sequence (A3GIC0 1-573): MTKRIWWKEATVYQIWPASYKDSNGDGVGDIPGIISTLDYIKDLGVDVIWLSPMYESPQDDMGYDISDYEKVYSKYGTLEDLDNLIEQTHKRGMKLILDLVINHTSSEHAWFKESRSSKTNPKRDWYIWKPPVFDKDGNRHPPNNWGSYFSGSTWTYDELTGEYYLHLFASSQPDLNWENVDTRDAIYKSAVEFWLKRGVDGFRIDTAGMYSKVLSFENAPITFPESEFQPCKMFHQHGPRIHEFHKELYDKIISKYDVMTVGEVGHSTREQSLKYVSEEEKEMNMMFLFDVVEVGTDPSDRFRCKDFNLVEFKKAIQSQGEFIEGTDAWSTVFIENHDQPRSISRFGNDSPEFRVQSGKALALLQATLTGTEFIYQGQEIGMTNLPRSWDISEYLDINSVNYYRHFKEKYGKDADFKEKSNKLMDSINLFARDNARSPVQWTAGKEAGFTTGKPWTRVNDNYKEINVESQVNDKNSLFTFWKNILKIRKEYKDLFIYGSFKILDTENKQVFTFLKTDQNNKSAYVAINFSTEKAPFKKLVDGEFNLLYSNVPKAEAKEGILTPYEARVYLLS

MAL7 (Ss MAL7) = biological target: T4, MAL7 (Ss MAL7) (Scheffersomyces stipitis, UniProt A3LUP5)
T4 construct: gene PCR-cloned from genomic DNA into pURI3-Cter, expressed in E. coli BL21 (DE3), crude cell extract
T4 sequence (A3LUP5 1-572): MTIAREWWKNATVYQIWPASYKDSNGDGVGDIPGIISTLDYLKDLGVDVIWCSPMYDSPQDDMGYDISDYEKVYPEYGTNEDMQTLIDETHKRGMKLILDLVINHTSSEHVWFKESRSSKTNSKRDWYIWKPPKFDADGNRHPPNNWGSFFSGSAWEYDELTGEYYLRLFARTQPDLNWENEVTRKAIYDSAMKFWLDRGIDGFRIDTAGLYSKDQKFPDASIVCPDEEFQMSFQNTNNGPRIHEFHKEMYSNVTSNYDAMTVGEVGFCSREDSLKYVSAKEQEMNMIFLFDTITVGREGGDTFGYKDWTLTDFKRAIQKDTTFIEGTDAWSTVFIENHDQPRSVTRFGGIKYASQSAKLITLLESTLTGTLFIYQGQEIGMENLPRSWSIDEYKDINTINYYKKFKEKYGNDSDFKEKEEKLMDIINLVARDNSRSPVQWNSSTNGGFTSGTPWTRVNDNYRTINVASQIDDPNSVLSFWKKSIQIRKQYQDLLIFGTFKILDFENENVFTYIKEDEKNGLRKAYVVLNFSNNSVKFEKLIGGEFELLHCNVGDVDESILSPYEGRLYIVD

MAL62 (Sc MAL62) [2] = biological target: T1, MAL62 (Sc MAL62); remark: listed apart in the source

| Compound | specific activity relative to sucrose (MAL62 (Sc MAL62) [1]) | specific activity relative to sucrose (MAL8 (Ss MAL8)) | specific activity relative to sucrose (MAL9 (Ss MAL9)) | specific activity relative to sucrose (MAL7 (Ss MAL7)) | specific activity (MAL62 (Sc MAL62) [2]) |
| --- | --- | --- | --- | --- | --- |
| OC[C@H]1O[C@H](O[C@H]2[C@H](O)[C@@H](O)C(O)O[C@@H]2CO)[C@H](O)[C@@H](O)[C@@H]1O (some centres unmarked) [maltose] | behaved as a typical maltase using only maltose-like substrates | all these enzymes hydrolyzed not only maltose-like substrates (maltose, sucrose) | all these enzymes hydrolyzed not only maltose-like substrates (maltose, sucrose) | all these enzymes hydrolyzed not only maltose-like substrates (maltose, sucrose) |  |
| OC[C@H]1O[C@@](CO)(O[C@H]2O[C@H](CO)[C@@H](O)[C@H](O)[C@H]2O)[C@@H](O)[C@@H]1O [sucrose] |  |  |  |  | behaved as a typical maltase using only maltose-like substrates |
